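How tested: cells in 96-well plates exposed to compound for 48 hours at five concentrations. The concentration for 50% growth inhibition is given as GI50. The concentration for full growth arrest is given as TGI.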
Experiments:
Experiment in all cases: DTP human tumour cell line panel, 48 h
[1] = test system: SNB-75 CNS
[2] = test system: LOX IMVI melanoma
[3] = test system: M14 melanoma
[4] = test system: HCT-116 colon
[5] = test system: NCI-H460 lung
[6] = test system: NCI-H522 lung
[7] = test system: SF-539 CNS
[8] = test system: HCT-15 colon
[9] = test system: OVCAR-4 ovarian
[10] = test system: DU-145 prostate

`N.N.O=P([O-])([O-])C1(P(=O)([O-])[O-])CCCCCN1.[Pt+2]` was tested, and the GI50 [1] was 29.5 µM, the TGI [1] was 88.1 µM and the GI50 [2] was > 100 µM. For the same molecule, the TGI [2] was > 100 µM, the GI50 [3] was > 100 µM and the TGI [3] was > 100 µM. For the same molecule, the GI50 [4] was > 100 µM, the TGI [4] was > 100 µM and the GI50 [5] was > 100 µM. The TGI [5] was > 100 µM, the GI50 [6] was > 100 µM and the TGI [6] was > 100 µM. The GI50 [7] was 31.9 µM, the TGI [7] was > 100 µM and the GI50 [8] was > 100 µM. For the same molecule, the TGI [8] was > 100 µM, the GI50 [9] was > 100 µM and the TGI [9] was > 100 µM.
With `CC(=O)[CH-]C(C)=O.CC(=O)[CH-]C(C)=O.CC[O-].CC[O-].[Ti+4]` the GI50 [1] was > 100 µM, the TGI [1] was > 100 µM and the GI50 [2] was > 100 µM. The TGI [2] was > 100 µM, the GI50 [3] was > 100 µM and the TGI [3] was > 100 µM. The GI50 [5] was > 100 µM, the TGI [5] was > 100 µM and the GI50 [6] was > 100 µM. For the same molecule, the TGI [6] was > 100 µM, the GI50 [7] was > 100 µM and the TGI [7] was > 100 µM. The GI50 [8] was > 100 µM, the TGI [8] was > 100 µM and the GI50 [9] was > 100 µM. The TGI [9] was > 100 µM.
`O=C(CCC(=O)C1CCC/C1=N/O)Nc1ccc(Cl)cc1` (stereo unspecified) was tested, and the TGI [1] was > 100 µM, the TGI [3] was > 100 µM and the TGI [4] was > 100 µM. The TGI [5] was > 100 µM, the TGI [6] was > 100 µM and the TGI [7] was > 100 µM. For the same molecule, the TGI [8] was > 100 µM and the TGI [9] was > 100 µM.
Molecule `C=C1C(=O)O[C@H]2[C@H]1CC/C(COC(=O)NCc1ccc(Cn3c(=O)sn(-c4ccccc4)c3=O)cc1)=C\CC[C@@]1(C)O[C@@H]21` has a GI50 [2] of 1.62 µM, a TGI [2] of 3.07 µM and a GI50 [3] of 1.8 µM. The TGI [3] was 3.58 µM, the GI50 [4] was 1.52 µM and the TGI [4] was 2.95 µM. For the same molecule, the GI50 [5] was 3.67 µM, the TGI [5] was 12.4 µM and the GI50 [6] was 1.74 µM. For the same molecule, the TGI [6] was 3.48 µM, the GI50 [7] was 1.57 µM and the TGI [7] was 3.06 µM. The GI50 [8] was 1.94 µM, the TGI [8] was 3.88 µM and the GI50 [9] was 2.74 µM. For the same molecule, the TGI [9] was 8.19 µM, the GI50 [10] was 1.71 µM and the TGI [10] was 3.12 µM.
With `Cc1ccc(C(=O)CC2=Nc3nnc(CCCCCCCc4nnc5n4C(=O)C(CC(=O)c4ccc(C)cc4)=N5)n3C2=O)cc1` the TGI [1] was 86.9 µM, the TGI [2] was > 100 µM and the TGI [3] was > 100 µM. The TGI [4] was > 100 µM, the TGI [5] was > 100 µM and the TGI [6] was > 100 µM. The TGI [7] was > 100 µM, the TGI [8] was > 100 µM and the TGI [9] was > 100 µM.
Work on `CCCCCn1c(C)cc(/C=C\c2ccc3cc(C)ccc3[n+]2C)c1C` yielded a GI50 [1] of 0.0791 µM, a TGI [1] of 0.975 µM and a GI50 [2] of 0.0951 µM. It also gave a TGI [2] of 1.85 µM, a GI50 [3] of 0.253 µM and a TGI [3] of 1.38 µM. The GI50 [4] was 0.0343 µM, the TGI [4] was 1.09 µM and the GI50 [5] was 0.113 µM. For the same molecule, the TGI [5] was 0.839 µM, the GI50 [7] was 0.241 µM and the TGI [7] was 1.06 µM. For the same molecule, the GI50 [8] was 0.49 µM, the TGI [8] was 1.9 µM and the GI50 [9] was 0.0683 µM. For the same molecule, the TGI [9] was 1.51 µM, the GI50 [10] was 0.0586 µM and the TGI [10] was 1.3 µM.
`CC1(C)C(=O)/C(=C\c2cccnc2)C[C@]2(C)[C@H]3CC[C@@H]4[C@@H](C(=O)/C=C/c5ccncc5)CC[C@@]4(C)[C@]3(C)CC[C@@H]12` was tested, and the GI50 [2] was 1.38 µM, the TGI [2] was 2.95 µM and the GI50 [3] was 1.89 µM. It also gave a TGI [3] of 4.93 µM, a GI50 [4] of 1.62 µM and a TGI [4] of 3.16 µM. The GI50 [5] was 1.9 µM, the TGI [5] was 4 µM and the GI50 [6] was 1.66 µM. The TGI [6] was 4.6 µM, the GI50 [7] was 1.76 µM and the TGI [7] was 3.25 µM. It also gave a GI50 [8] of 1.71 µM, a TGI [8] of 4.85 µM and a GI50 [9] of 2.55 µM. For the same molecule, the TGI [9] was 9.89 µM, the GI50 [10] was 1.68 µM and the TGI [10] was 3.24 µM.
`Cc1ccc([C@]2(C)CC[C@H](C)/C2=C\Br)c(O)c1` was tested, and the GI50 [2] was 8.21 µM, the TGI [2] was 22.3 µM and the GI50 [3] was 3.51 µM. For the same molecule, the TGI [3] was 13.3 µM, the GI50 [4] was 2.88 µM and the TGI [4] was 9.33 µM. The GI50 [5] was 4.23 µM, the TGI [5] was 16.5 µM and the GI50 [6] was 3.24 µM. For the same molecule, the TGI [6] was 12 µM, the GI50 [7] was 1.85 µM and the TGI [7] was 4.17 µM. The GI50 [8] was 4.99 µM, the TGI [8] was 33.7 µM and the GI50 [9] was 3.42 µM. It also gave a TGI [9] of 14 µM, a GI50 [10] of 4.1 µM and a TGI [10] of 17.2 µM.
`NC(=S)NN=C1CSSC1` gave a GI50 [3] of 1.92 µM, a TGI [3] of 7.79 µM and a GI50 [4] of 2.78 µM. The TGI [4] was 11.8 µM, the GI50 [5] was 1.61 µM and the TGI [5] was 6.49 µM. The GI50 [6] was 2.95 µM, the TGI [6] was 15.4 µM and the GI50 [7] was 2.75 µM. The TGI [7] was 7.38 µM, the GI50 [8] was 1.7 µM and the TGI [8] was 4.75 µM. It also gave a GI50 [9] of 4.32 µM, a TGI [9] of 38.7 µM and a GI50 [10] of 4.12 µM. The TGI [10] was 16.2 µM.
`O=C1/C(=C/c2ccc(Br)cc2)CCC/C1=C\c1ccc(Br)cc1` was tested, and the TGI [1] was 69.3 µM, the TGI [3] was 11.5 µM and the TGI [4] was 3.1 µM. For the same molecule, the TGI [5] was 28.8 µM, the TGI [6] was 39.2 µM and the TGI [7] was 33.8 µM. For the same molecule, the TGI [8] was 31.1 µM and the TGI [9] was 36.2 µM.
In the case of `COc1cc2c3c(n(C)c(=O)c2cc1OC)-c1cc2c(cc1/C3=C\CCNCCCN)OCO2`, the GI50 [1] is reported as 11.4 µM, the TGI [1] is reported as > 100 µM and the GI50 [3] is reported as 5.32 µM. For the same molecule, the TGI [3] was 20.5 µM, the GI50 [4] was 1.49 µM and the TGI [4] was 3.39 µM. The GI50 [5] was 0.853 µM, the TGI [5] was 20.3 µM and the GI50 [6] was 1.67 µM. The TGI [6] was 25.5 µM, the GI50 [7] was 1.65 µM and the TGI [7] was 9.95 µM. The GI50 [8] was 16.9 µM, the TGI [8] was 39.6 µM and the GI50 [9] was 1.04 µM. The TGI [9] was 7.56 µM.
For `O=[N+]([O-])c1ccc(C=NC23CC4CC(CC(C4)C2)C3)cc1`, the TGI [1] was > 100 µM, the TGI [2] was > 100 µM and the TGI [3] was > 100 µM. The TGI [4] was > 100 µM, the TGI [5] was > 100 µM and the TGI [6] was > 100 µM. The TGI [7] was > 100 µM, the TGI [8] was > 100 µM and the TGI [9] was > 100 µM.
Molecule `OCCN1CCN(CC/C=C2/c3ccccc3Sc3ccc(Cl)cc32)CC1` has a TGI [1] of 12.3 µM, a TGI [2] of 21.8 µM and a TGI [3] of 6.24 µM. It also gave a TGI [4] of 21.7 µM, a TGI [5] of 16.3 µM and a TGI [6] of 30.1 µM. The TGI [7] was 25.7 µM, the TGI [8] was 26.2 µM and the TGI [9] was 31.5 µM.
For `CC(=O)N/C(=C\c1ccc(Cc2nc3c([nH]2)C(=O)c2ccccc2C3=O)cc1)c1nc2c([nH]1)C(=O)c1ccccc1C2=O`, the TGI [1] was > 100 µM, the TGI [2] was > 100 µM and the TGI [3] was > 100 µM. The TGI [4] was > 100 µM, the TGI [5] was > 100 µM and the TGI [6] was > 100 µM. The TGI [7] was > 100 µM and the TGI [9] was > 100 µM.
`N#CCC(=O)N1CCCCCCC1` was tested, and the TGI [2] was > 100 µM, the TGI [3] was > 100 µM and the TGI [4] was > 100 µM. The TGI [5] was > 100 µM, the TGI [7] was > 100 µM and the TGI [8] was 30.5 µM. For the same molecule, the TGI [9] was > 100 µM.
In the case of `CCN(CC)CCNC(=O)c1cccc2nc3ccccc3nc12`, the TGI [1] is reported as > 100 µM, the TGI [2] is reported as 29.5 µM and the TGI [3] is reported as > 48.7 µM. For the same molecule, the TGI [4] was 45.6 µM, the TGI [6] was > 100 µM and the TGI [7] was 28.8 µM. The TGI [8] was 41.8 µM and the TGI [9] was 38.8 µM.
`Oc1ccc(Cc2cc(Cl)cc(Cl)c2O)cc1Cl` showed a TGI [2] of 31.4 µM, a TGI [3] of 34 µM and a TGI [4] of 37.2 µM. The TGI [5] was 32.4 µM, the TGI [6] was 31.6 µM and the TGI [7] was 34.3 µM. It also gave a TGI [8] of 35.2 µM, a TGI [9] of 58.3 µM and a TGI [10] of 24.4 µM.
In the case of `C[C@]12CCC(=O)C=C1CC[C@@H]1C2CC[C@]2(C)c3nn(-c4ccccc4)nc3CC12` (stereo partly specified), the TGI [1] is reported as > 100 µM, the TGI [2] is reported as > 100 µM and the TGI [3] is reported as > 100 µM. For the same molecule, the TGI [4] was > 100 µM, the TGI [5] was > 100 µM and the TGI [7] was > 100 µM. The TGI [8] was > 100 µM and the TGI [9] was > 100 µM.

From PubChem BioAssay (NCI)
